Assay results from article PMC6451126 (2019).

What was measured:
[1] = system: KRAS (DNA, G4) AGGGCGGTGTGGGAAGAGGGAAGAGGGGGAGG; assay: RLS ratio I702/I652, absorption, fluorescence; Job plot; conditions: 50 mM KCl; 20 mM Tris-HCl pH 7.0, 1 mM Na2EDTA, 5 µM porphyrin
[2] = system: AS1411 (DNA, G4) GGTGGTGGTGGTTGTGGTGGTGGTGG; assay: RLS intensity ratio; conditions: 50 mM KCl; 20 mM Tris-HCl pH 7.0, 1 mM Na2EDTA, 5 µM porphyrin, 10 µM DNA
[3] = system: Oxy28 (DNA, G4) GGGGTTTTGGGGTTTTGGGGTTTTGGGG; assay: RLS intensity ratio; conditions: 50 mM KCl; 20 mM Tris-HCl pH 7.0, 1 mM Na2EDTA, 5 µM porphyrin, 10 µM DNA
[4] = system: Hum24 (DNA, G4) TTAGGGTTAGGGTTAGGGTTAGGG; assay: RLS intensity ratio; conditions: 50 mM KCl; 20 mM Tris-HCl pH 7.0, 1 mM Na2EDTA, 5 µM porphyrin, 10 µM DNA
[5] = system: C-MYC (DNA, G4) TGAGGGTGGGGAGGGTGGGGAA; assay: RLS intensity ratio; conditions: 50 mM KCl; 20 mM Tris-HCl pH 7.0, 1 mM Na2EDTA, 5 µM porphyrin, 10 µM DNA
[6] = system: CatG4 (DNA, G4) TGGGTAGGGCGGGTTGGG; assay: RLS intensity ratio; conditions: 50 mM KCl; 20 mM Tris-HCl pH 7.0, 1 mM Na2EDTA, 5 µM porphyrin, 10 µM DNA
[7] = system: KRAS (DNA, G4) AGGGCGGTGTGGGAAGAGGGAAGAGGGGGAGG; assay: RLS intensity ratio; Job plot; conditions: 50 mM KCl; 20 mM Tris-HCl pH 7.4, 1 mM Na2EDTA, 5 µM porphyrin

Measured: binding

C[N+]1(CCOc2ccc(-c3c4nc(c(-c5ccc(OCC[N+]6(C)CCCCC6)cc5)c5ccc([nH]5)c(-c5ccc(OCC[N+]6(C)CCCCC6)cc5)c5nc(c(-c6ccc(OCC[N+]7(C)CCCCC7)cc6)c6ccc3[nH]6)C=C5)C=C4)cc2)CCCCC1
yes: [1] | [2] | [3] | [4] | [5] | [6]

C[N+]1(CCO)CC[N+](C)(CCOc2ccc(-c3c4nc(c(-c5ccc(OCC[N+]6(C)CC[N+](C)(CCO)CC6)cc5)c5ccc([nH]5)c(-c5ccc(OCC[N+]6(C)CC[N+](C)(CCO)CC6)cc5)c5nc(c(-c6ccc(OCC[N+]7(C)CC[N+](C)(CCO)CC7)cc6)c6ccc3[nH]6)C=C5)C=C4)cc2)CC1 (stereo not shown)
yes: [7]
